Laboratory results taken from article PMC6560211, “ApoAI-derived peptide increases glucose tolerance and prevents formation of atherosclerosis in mice” (Diabetologia, 2019).
No end group written: not given here.

Legend:
[1] = rHDL formation, particle size by DLS; conditions: 1:100 protein:lipid molar ratio, extruded 100 nm MLVs, 4 days (96 h), 24°C
Description: 1,2-dimyristoyl-sn-glycero-3-phosphocholine (DMPC; Avanti Polar Lipids, Alabaster, AL, USA) was formed into 100 nm multilamellar vesicles (MLV) via extrusion using the LiposoFast system (Avestin, Ottawa, ON, Canada) as previously described. MLV were incubated with RG54 or ApoA-I at the indicated ratios for 4 days at 24°C to form rHDL. The resulting particle sizes were measured by dynamic light scattering (DLS) using a Zetasizer APS (Malvern Instruments, Uppsala, Sweden).
The reduced initial rate may be due to a more complex binding pattern of the larger number of RG54 peptides needed per formed particle: four to five RG54 molecules (54 amino acids each) are needed to make up the size of full-length ApoA-I (243 amino acids). A qualitative assessment of particle formation was therefore next used to evaluate and compare the sizes of formed rHDL. The hydrodynamic diameters of lipid–protein complexes formed after extended incubation (96 h) of RG54 or ApoA-I with extruded 100 nm MLVs were estimated using DLS.
ESM Figure 4. Lipid clearance and peptide-lipid complex formation activity of RG54 compared with full-length ApoA-I. […]

[2] = Peptide stability in physiologic buffer or blood plasma; assay type: in vitro ADME; conditions: after denaturation/refolding; phosphate buffer, human plasma (citrate, pooled from four donors) or mouse CD-1 plasma (heparin); over 2 h; LC-MS/MS
Description: Peptide (lyophilised powder) produced by Red Glead (Lund, Sweden) was reconstituted in Milli-Q water and then either used directly or mixed in a 1:1 ratio with 6 mol/l guanidine HCl in 2× PBS to give a monodisperse solution, followed by desalting using a column equilibrated with PBS, pH 7.4, using ÄKTAxpress fast protein LC (GE Healthcare, Uppsala, Sweden). Peptide integrity was analysed using circular dichroism spectroscopy. Peptide solubility was assayed at Red Glead using HPLC. Peptide stability in physiologic buffer or blood plasma (human or mouse) over 2 h was assayed at the Science for Life Laboratory (Uppsala, Sweden). […]
Peptide concentration was determined at 205 nm using a NanoDrop 2000c spectrophotometer (Thermo Scientific) and integrity was analysed by Tris-Tricine SDS-PAGE followed by coomassie staining or by circular dichroism spectroscopy (CD). […]
The primary goal of this study was to investigate the anti -diabetic and anti-atherosclerotic efficacy of a novel ApoA -I derived peptide. Using a range of in vitro models, we assessed the effects of the peptide on HDL formation, cholesterol efflux, insulin secretion, and non -insulin dependent glucose uptake. […] Peptide effects were measured relative to full length ApoA -I and vehicle controls. […]
Supernatants were recovered and insulin secretion was analysed by ELISA (Mercodia). […]

In the case of “Ac-AEYHAKATEHLSTLSEKAKPALEDLRQGLLPVLESFKVSFLSALEEYTKKLNTQ [RG54]”, the “lipid-protein complexes formed (DLS frequency plots)” value [1] is reported as “single peaks corresponding to rHDL particles” and the “peptide integrity by peptide stability assays (buffer or plasma)” value [2] is reported as “confirmed”.
